Measurements reported in ChEMBL document CHEMBL1201862, “PubChem BioAssay data set” (2004).
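Values below derive from 48-hour exposures of cells grown in 96-well plates, with endpoints linearly interpolated between the two concentrations bracketing the appropriate inhibition level. GI50 is the concentration that inhibits growth by half.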 The source made the active and inactive calls. Cut-off read from the data, not from the text of the source: active = GI50 up to about 1.1 µM and inactive = higher. Numbered stars: 1 amine (or outer) side, 2 acyl side, 3 side chain; on linkers, the order of the positions; unused ones are H or OH. Bridge positions count the residues as written; N and C are the ends. Square brackets hold non-standard residues; d marks the D form. Peptide text beside a SMILES is read from it. X58 = COc1c(N[*:1])cccc1C(=O)O[C@H](C(=O)[C@H](C)C(=O)[*:2])C(C)C; X57 = CC(C)C[C@H](C(=O)[*:2])C(C)C(=O)C1CCCN1[*:1]; NMeY = CN[C@@H](Cc1ccc(O)cc1)C(=O)O; Lac = C[C@H](O)C(=O)O

Experiments:
Assay in all cases: inhibition of tumour cell growth, NCI panel, 48 h
HCC 2998 = test system: HCC 2998
M14 = test system: M14
HCT-15 = test system: HCT-15
IGROV-1 = test system: IGROV-1
LOX IMVI = test system: LOX IMVI
OVCAR-8 = test system: OVCAR-8
COLO 205 = test system: COLO 205
DU-145 = test system: DU-145
786-0 = test system: 786-0
NCI-H226 = test system: NCI-H226
HT-29 = test system: HT-29
UO-31 = test system: UO-31
SW-620 = test system: SW-620
T47D = test system: T47D
HOP-62 = test system: HOP-62
HCT-116 = test system: HCT-116
SF-539 = test system: SF-539
MOLT-4 = test system: MOLT-4
SNB-75 = test system: SNB-75
A549 = test system: A549

| Structure (SMILES) | GI50 (HCC 2998) | GI50 (M14) | GI50 (HCT-15) [µM] | GI50 (IGROV-1) | GI50 (LOX IMVI) | GI50 (OVCAR-8) | GI50 (COLO 205) | GI50 (DU-145) | GI50 (786-0) | GI50 (NCI-H226) | GI50 (HT-29) | GI50 (UO-31) | GI50 (SW-620) | GI50 (T47D) | GI50 (HOP-62) | GI50 (HCT-116) | GI50 (SF-539) | GI50 (MOLT-4) | GI50 (SNB-75) | GI50 (A549) |
| --- | --- | --- | --- | --- | --- | --- | --- | --- | --- | --- | --- | --- | --- | --- | --- | --- | --- | --- | --- | --- |
| N#C/C(=C\c1ccc(F)cc1)c1nc2ccccc2c(=O)[nH]1 | > 100 µM (inactive) | > 100 µM (inactive) | > 100 | > 100 µM (inactive) | > 100 µM (inactive) | > 100 µM (inactive) | > 100 µM (inactive) | > 100 µM (inactive) | > 100 µM (inactive) | > 100 µM (inactive) | > 100 µM (inactive) | > 100 µM (inactive) | > 100 µM (inactive) | > 100 µM (inactive) | 47 µM (inactive) | > 100 µM (inactive) | > 100 µM (inactive) | 26.1 µM (inactive) | 25.9 µM (inactive) | > 100 µM (inactive) |
| O=c1[nH]nc(-c2ccccc2)n1/N=C\CC/C=N\n1c(-c2ccccc2)n[nH]c1=O | 40.7 µM (inactive) | 20.6 µM (inactive) | 21.4 | > 49.9 µM (inactive) | 12.9 µM (inactive) | 30.1 µM (inactive) | 55 µM (inactive) | > 59.2 µM (inactive) | 26.5 µM (inactive) | 24.5 µM (inactive) | 19.4 µM (inactive) | > 67.6 µM (inactive) | 32.2 µM (inactive) | 30.8 µM (inactive) | > 52.4 µM (inactive) | 24.2 µM (inactive) | 27.4 µM (inactive) | 20.1 µM (inactive) | > 69.3 µM (inactive) | > 100 µM (inactive) |
| C=C1C(=O)O[C@@H]2[C@H]1C[C@@H](O)[C@H](C)[C@@](O)(C(=O)/C=C/C)[C@H]2OC(=O)C(C)CC (stereo not given in full) | 14.5 µM (inactive) | 3.3 µM (inactive) | 2.44 | 2.58 µM (inactive) | 2.93 µM (inactive) | 2.22 µM (inactive) | 1.75 µM (inactive) | 4.27 µM (inactive) | 2.61 µM (inactive) | 43.4 µM (inactive) | 2.24 µM (inactive) | 1.82 µM (inactive) | 2.42 µM (inactive) | 5.7 µM (inactive) | 21 µM (inactive) | 1.84 µM (inactive) | 7.33 µM (inactive) | 2.44 µM (inactive) | 22.6 µM (inactive) | 15.2 µM (inactive) |
| CC(C)N1CN(c2ccccc2)C2(CCN(CCCC(=O)c3ccc(F)cc3)CC2)C1=O | 7.14 µM (inactive) | 15.3 µM (inactive) | 6.31 | 3.85 µM (inactive) | 7.1 µM (inactive) | 24 µM (inactive) | 0.483 µM (active) | 3.18 µM (inactive) | 6.9 µM (inactive) | 6.64 µM (inactive) | 1.79 µM (inactive) | 19.4 µM (inactive) | 4.99 µM (inactive) | 6.07 µM (inactive) | 3.7 µM (inactive) | 2.04 µM (inactive) | 9.55 µM (inactive) | 5.92 µM (inactive) | 36.1 µM (inactive) | 4.68 µM (inactive) |
| O=C(O)Cc1cccc2c(=O)c3cccc([N+](=O)[O-])c3oc12 | > 100 µM (inactive) | > 100 µM (inactive) | > 100 | > 100 µM (inactive) | > 100 µM (inactive) | > 100 µM (inactive) | > 100 µM (inactive) | > 100 µM (inactive) | > 100 µM (inactive) | > 100 µM (inactive) | > 100 µM (inactive) | > 100 µM (inactive) | > 100 µM (inactive) | > 100 µM (inactive) | > 100 µM (inactive) | > 100 µM (inactive) | > 100 µM (inactive) | > 100 µM (inactive) | > 100 µM (inactive) | > 100 µM (inactive) |
| COc1ccc(C[C@H]2C(=O)O[C@H](C)[C@H](NC(=O)[C@@H](CC(C)C)C(C)C(=O)C3CCCN3C(=O)[C@H](C)O)C(=O)Nc3cccc(c3OC)C(=O)O[C@@H](C(C)C)C(=O)[C@H](C)C(=O)N[C@@H](CC(C)C)C(=O)N3CCC[C@H]3C(=O)N2C)cc1 (stereo not given in full) (H-[Lac][X57]T[X58]LP[NMeY](Me); ester 3-C) | 3.82 µM (inactive) | 11.4 µM (inactive) | > 12.5 | > 12.5 µM (inactive) | 9.66 µM (inactive) | > 12.5 µM (inactive) | 9.29 µM (inactive) | > 12.5 µM (inactive) | > 12.5 µM (inactive) | 7.26 µM (inactive) | 2.79 µM (inactive) | > 12.5 µM (inactive) | 9.29 µM (inactive) | > 12.5 µM (inactive) | > 12.5 µM (inactive) | 6.12 µM (inactive) | > 12.5 µM (inactive) | 1.91 µM (inactive) | 2.81 µM (inactive) | 6.75 µM (inactive) |
| Cn1ccc2c(c1=O)C(=O)OC2(C)C [CERPEGIN] | > 100 µM (inactive) | > 100 µM (inactive) | > 100 | > 100 µM (inactive) | > 100 µM (inactive) | > 100 µM (inactive) | > 100 µM (inactive) | > 100 µM (inactive) | > 100 µM (inactive) | > 100 µM (inactive) | > 100 µM (inactive) | 59.2 µM (inactive) | > 100 µM (inactive) | > 100 µM (inactive) | > 100 µM (inactive) | > 100 µM (inactive) | > 100 µM (inactive) | > 100 µM (inactive) | > 100 µM (inactive) | > 100 µM (inactive) |
